Results published in article PMC10544575, “Inhibitory mechanism of vortioxetine on CYP450 enzymes in human and rat liver microsomes” (Frontiers in Pharmacology, 2023).
pIC50: −log10 of the molar value. Read-outs that look alike come from different tables or passages of the source.

Columns and labels:
[1] = tested on: CYP2C-2; experiment: IC50-shift experiment, CYP2C-2 in RLMs; format: in vitro ADME, rat; details: for IC50 at 30 min: losartan 15 μM
[2] = tested on: CYP2D; experiment: IC50-shift experiment, CYP2D in RLMs; format: in vitro ADME; details: rat, rat liver microsomes, probe dextromethorphan; for IC50 at 30 min: dextromethorphan 20 μM
Experimental: (§1) The components of the incubation system were as follows: 0.20 mg/mL HLMs or 0.20 mg/mL RLMs, 0.1 M Tris-HCl, vortioxetine, and the probe substrates of each enzyme. In the study of Km’s (Michaelis–Menten constant) experiment, midazolam (1, 2, 5, 10, 20, 50 and 100 μM in HLMs and RLMs) corresponded to CYP3A4/3A; bupropion (10, 20, 50, 100, 200, 500, 1,000 and 2000 μM in HLMs; 1, 2, 5, 10, 20, 50, 100 and 200 μM in RLMs) corresponded to CYP2B6/2B; amodiaquine (5, 10, 20, 50, 100 and 200 μM in HLMs; 10, 20, 50, 100, 200, 500 μM in RLMs) corresponded to CYP2C8/CYP2C-1; losartan (1, 2, 5, 10, 20, 50, 100, 200 μM in HLMs; 10, 20, 50, 100, 200, 500 and 1,000 μM in RLMs) corresponded to CYP2C9/CYP2C-2; mephenytoin (20, 50, 100, 200, 500 and 1,000 μM in HLMs; 5, 10, 20, 50, 100, 200, 500 and 1,000 μM in RLMs) corresponded to CYP2C19/CYP2C-3; and dextromethorphan (1, 2, 5, 10, 20, 50 and 100 μM in HLMs and RLMs) corresponded to CYP2D6/CYP2D. After 5.0 min of preincubation in the shaking water bath, the reaction was started with the addition of 1.0 mM NADPH. The incubated temperature at 37°C for 30 min. After the incubation, the enzyme reaction was stopped by cooling at −80°C, and 200 μL of acetonitrile and 20 μL of internal standard diazepam (200 ng/mL) were added for protein precipitation. […]
IC50-shift was used to investigate whether the drug produced time-dependent inhibition (TDI) of the enzyme. […] During the experiment, the individual substrates midazolam (4 μM), bupropion (40 μM), amodiaquine (3 μM), losartan (8 μM), mephenytoin (90 μM), and dextromethorphan (10 μM) were determined with vortioxetine IC50-shift in HLMs. […]
(§2) All experiments results were detected by UPLC-MS/MS, which equipped with a Waters Acquity UPLC system (Milford, MA, United States) and a Waters Xevo TQ-S triple quadrupole tandem mass spectrometer with an electrospray ionization source (Milford, MA, United States). […]
(§3) IC50 values and enzyme kinetic parameters were calculated by Graphpad Prism 6.0 (GraphPad software Inc., CA, United States). […] Data for each experiment were expressed as mean ± SD (n = 3).

[3] = set-up: method as in earlier work; details: patients with severe liver impairment; single oral dose of 10 mg; ref (2022); cited from earlier work
[4] = biological target: T1, CYP2C8 (Homo sapiens, UniProt P10632); experiment: IC50 of vortioxetine on CYP2C8 (amodiaquine) in HLMs; format: in vitro ADME; set-up: 0.20 mg/mL HLMs; from tissue; host or cells: human liver microsomes
T1 sequence (P10632 1-490): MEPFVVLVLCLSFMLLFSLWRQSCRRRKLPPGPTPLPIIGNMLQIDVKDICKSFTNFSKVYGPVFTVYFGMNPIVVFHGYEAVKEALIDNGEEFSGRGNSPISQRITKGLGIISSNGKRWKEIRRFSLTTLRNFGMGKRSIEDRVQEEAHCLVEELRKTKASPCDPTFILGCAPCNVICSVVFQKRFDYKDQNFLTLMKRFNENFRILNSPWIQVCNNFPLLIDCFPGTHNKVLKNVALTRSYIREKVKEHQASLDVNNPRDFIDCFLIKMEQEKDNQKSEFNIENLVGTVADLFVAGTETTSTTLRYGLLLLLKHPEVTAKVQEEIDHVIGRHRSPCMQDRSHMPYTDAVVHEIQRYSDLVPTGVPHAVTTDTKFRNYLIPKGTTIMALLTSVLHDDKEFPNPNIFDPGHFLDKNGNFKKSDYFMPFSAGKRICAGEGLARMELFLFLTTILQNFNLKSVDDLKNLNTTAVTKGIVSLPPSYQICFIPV
Experimental: as §1, with “CYP2D6/CYP2D.” for “CYP2D6/CYP2D. After 5.0 min of preincubation in the shaking water bath, the reaction was started with the addition of 1.0 mM NADPH. The incubated temperature at 37°C for 30 min. After the incubation, the enzyme reaction was stopped by cooling at −80°C, and 200 μL of acetonitrile and 20 μL of internal standard diazepam (200 ng/mL) were added for protein precipitation.”
as §2, §3

Compound: Cc1ccc(Sc2ccccc2N2CCNCC2)c(C)c1 [vortioxetine]
- activity of CYP2C-2 with the NADPH ([1]; preincubation with NADPH vs without): significantly increased
- IC50 at 30 min ([1]; rat, rat liver microsomes, probe losartan, CYP2C-2, 30 min preincubation with 1.0 mM NADPH): 37.5 µM
- IC50 at 30 min ([1]; rat, rat liver microsomes, probe losartan, CYP2C-2, 30 min preincubation without NADPH): 8.97 µM
- IC50 shift at 30 min ([1]; rat, rat liver microsomes, probe losartan, CYP2C-2, ratio IC50 (−) NADPH to IC50 (+) NADPH, read-out: IC50 fold shift): 0.24
- IC50 at 30 min ([2]; 30 min preincubation with 1.0 mM NADPH): 7.38 µM
- IC50 at 30 min ([2]; 30 min preincubation without NADPH): 3.35 µM
- IC50 shift at 30 min ([2]; ratio IC50 (−) NADPH to IC50 (+) NADPH, read-out: IC50 fold shift): 0.45
- AUC(0-t) higher than healthy subjects [3]: 10%
- Cmax lower than healthy subjects [3]: 24%
- pIC50 ([4]; HLMs 0.20 mg/mL, amodiaquine at Km, 37°C, 30 min, read-out: IC50): 4.82
- pIC50 ([4]; inhibitory effect (strength judged by IC50), HLMs): < 5.00
